Results on four molecules are retold here after patent US20100016440A1, “ALPHA-AMINOAMIDE DERIVATIVES USEFUL AS ANTI-INFLAMMATORY AGENTS” (NEWRON PHARMACEUTICALS S.P.A., priority 2003, published 2010).

In assay [1] the test system is paw edema induced by carrageenan. Briefly: Paw edema carrageenan-induced inflammation. It counts as in vivo, rat. Conditions: for volume of paw edema (mean Δml ± s.e. vs basal paw volume): 60' after carrageenan, po 1 h before carrageenan, male Wistar rats; for volume of paw edema (mean Δml ± s.e. vs basal paw volume) / reduction of edema vs. the control vehicle (inhibition): Compound A 30 mg/kg, indomethacin 5 mg/kg; for reduction of edema vs. the control vehicle (inhibition): 4 h after carrageenan injection, oral. From the text:
The anti-inflammatory activity of the α-aminoamide compounds of formula (I) have proven effective in a rat model of inflammation induced by carrageenan injection.
The potential anti-inflammatory effect of (S)-(+)-2-[4-(2-fluorobenzyloxy)-benzylamino]-propanamide (“compound A”) was investigated in the rat model of inflammatory acute pain induced by subplantar injection of carrageenan. Itraplantar injection of carrageenan elicit a time-dependent increase in paw volume.
Male Wistar rats of 175-200 grams were used. The left hind paw was injected with 100 μl of carrageenan (2% w/v in saline). Compound A (30 mg/kg), indomethacin (5 mg/kg), or control vehicle (such as distilled water) were orally administered 1 h before carrageenan injection. The paw volume was measured with a plethysmometer (Ugo Basile) immediately before (basal) and 1, 2, 3, 4 and 5 h after the carrageenan injection.

The test system of assay [2] is KCl-evoked SP release from spinal cord superfused synaptosomes. In words: Substance P (SP) release from rat spinal cord synaptosomes. Type of assay: cell-based. Conditions: KCl (35 mM) evoked, RIA, concentrations 0.1 to 30 μM, read-out: IC50 for reducing evoked SP release. The method, then:
Male adult Sprague-Dawley rats were used. Following decapitation, the spinal cord was removed and homogenized in sucrose buffer 0.32 M pH 7.4. Samples were centrifuged at 12000 g for 20 minutes and the synaptosomal fraction was resuspended in physiological buffer. SP release from spinal cord superfused synaptosomes was induced by KCl (35 mM) and measured by RIA method (see Lee C M. et al. (1980) “The development and application of a novel N-terminal directed substance P antiserum”, Life Science 27 (7):535-543).

Assay [3] deals with inflamed joint induced by carrageenan. Conditions: cited from earlier work.

SMILES strings stand for the structures.

The IC50 is the point on the concentration scale where inhibition reaches its midpoint. For `C[C@H](NCc1ccc(OCc2ccccc2F)cc1)C(N)=O` [Compound A, (S)-(+)-2-[4-(2-fluorobenzyloxy)-benzylamino]-propanamide], in assay [1], the “volume of paw edema (mean Δml ± s.e. vs basal paw volume)” value is 0.19 ± 0.03 mL and the “reduction of edema vs. the control vehicle (inhibition)” value worked out at 40%. Also, the “paw edema formation (in words)” value in assay [1] (Compound A 30 mg/kg oral, 1-5 h after carrageenan) was “prevented paw edema formation at all time points considered”. Besides, the IC50 in assay [2] turned out to be 2.12 µM.

For `COc1ccc2c(c1)c(CC(=O)O)c(C)n2C(=O)c1ccc(Cl)cc1` [Indomethacin, indomethacin], in assay [1], the “volume of paw edema (mean Δml ± s.e. vs basal paw volume)” value is 0.29 ± 0.04 mL and the “reduction of edema vs. the control vehicle (inhibition)” value is “about 50%”.

As for `C[C@@H](CN1CC[C@@]2(C)c3cccc(O)c3C[C@@H]1C2(C)C)OCc1ccccc1` [crobenetine], in assay [3], the “mechanical hyperalgesia (in words)” value is recorded as “able to reverse the mechanical hyperalgesia”; the “swelling and stiffness of the inflamed joint (in words)” value is given as “without any effect”.

Regarding `Cc1cccc(C)c1OCC(C)N` (stereo not shown) [mexeletine], in assay [3], the “mechanical hyperalgesia (in words)” value is “able to reverse the mechanical hyperalgesia”; the “swelling and stiffness of the inflamed joint (in words)” value is listed as “without any effect”.
